{
  "source": "patent US20240201204A1",
  "about": "“Biomarker and Druggable Target of Neurodegeneration” (University Hospitals Cleveland Medical Center, priority 2020, published 2024)",
  "key": {"[1]": {"details": "in vivo", "procedure": "Diflunisal was administered PO and animals were euthanized at the indicated times post-dose. After peripheral blood collection, animals were perfused with 1×PBS to remove blood in the brain vasculature. Total plasma and brain levels of diflunisal were evaluated by LC-MS/MS and then converted to free drug levels after measurement of binding in mouse plasma and brain.\nDiflunisal pharmacokinetics: Diflunisal levels in mouse plasma and brain were monitored by LC-MS/MS using an AB Sciex (Framingham, MA) 4000 QTRAP® mass spectrometer coupled to a Shimadzu (Columbia, MD) Prominence LC. Diflunisal was detected with the mass spectrometer in negative MRM (multiple reaction monitoring) mode by following the precursor to fragment ion transitions 248.9 to 204.9 (quantifier ion) and 248.9 to 184.9 (qualifier ion). An Agilent C18 XDB column (5 micron, 50×4.6 mm) was used for chromatography for PK studies with the following conditions: Buffer A: dH20+0.1% formic acid, Buffer B: acetonitrile+0.1% formic acid, 0-1.0 min 5% B, 1.0-1.5 min gradient to 100% B, 1.5-3.0 min 100% B, 3.0-3.2 min gradient to 5% B, 3.2-4.5 5% B. Tolbutamide (transition 269.1 to 169.9) from Sigma (St. Louis, MO) was used as an internal standard (IS). Pharmacokinetic studies were performed by injecting 8 week old C57BL/6J male mice with diflunisal formulated in 10% DMSO, 20% Kolliphor EL, 70% saline. 60 or 180 minutes post-dose, animals were anesthetized with ketamine (100 mg/kg) and xylazine (10 mg/kg) via intraperitoneal (IP) injection. Blood was collected using the anticoagulant ACD, and then brains were harvested after transcardial perfusion with 1×PBS. Tissues were weighed before snap freezing and blood spun at 9600×g to collect plasma which was stored frozen along with brain tissue at −80° C. until analysis. […] The concentration of drug in each time-point sample was quantified using Analyst software (Sciex). […] The limit of quantitation (LOQ) was defined as the lowest concentration at which back calculation yielded a concentration within 20% of theoretical."}, "[2]": {"assay": "Diflunisal protein binding by rapid equilibrium dialysis", "type": "in vitro ADME, mouse", "details": "diluted 1:20 (final) with PBS, 37° C.", "procedure": "(§1) Diflunisal protein binding: Protein binding of diflunisal in mouse plasma or brain homogenate was determined by rapid equilibrium dialysis using RED chambers (Thermo Scientific, Waltham, MA). On the day of the RED experiment, frozen mouse plasma and 4× homogenized brain was thawed in a water bath at 37° C. Then it was equilibrated for 45 minutes at 37° C. in an atmosphere of 5% CO2. The pH of PBS was confirmed within 7.4±0.1. The pH of plasma and brain was measured and adjusted to 7.4±0.1 using concentrated acid or base. Plasma and brain diluted at 1:20 (final) with PBS and used for all subsequent steps. An aliquot of plasma or brain was spiked with compound to a compound concentration of 5 μM and vortex mixed. […] Donor, dialysate, and plasma or brain stability samples were analyzed by using a matrix matching approach whereby each sample was mixed in a 1:1 ratio with the opposite medium (blank matrix or PBS). […] Diflunisal levels in both chambers were measured by LC-MS/MS in comparison to a standard curve prepared in 1:1 matrix: PBS as described above. For each matrix, stability was assessed by maintaining individual aliquots of compound-spiked matrix at 37° C. and 5% CO2 for 0 and 6 hours. […] Stability of diflunisal in plasma and brain was 99% over 6 hours as assessed by LC-MS/MS. Fraction unbound (fu) was determined based on the following equations: […]"}, "[3]": {"assay": "Diflunisal stability in plasma and brain homogenate", "type": "in vitro ADME", "details": "mouse plasma and brain homogenate, 37° C., 5% CO2, over 6 hours", "procedure": "as §1"}, "clinically-diagnosed TBI": {"test_system": "clinically-diagnosed TBI", "assay": "Pharmacoepidemiologic cohort analysis (MarketScan Medicare Supplemental database), incidence of TBI", "type": "in vivo, human", "details": "vs. PS-matched aspirin cohort, Cox regression model, 6 years of follow-up", "description": "(§2) Because ac-tau has been generally reported in the brains of subjects with AD, we evaluated the relationship between salsalate or diflunisal use and incidence of clinically-diagnosed TBI or AD by analyzing 7.23 million U.S. commercially-insured individuals (MarketScan Medicare Supplemental database). We conducted two cohort analyses to evaluate the predicted association, based on individual level of longitudinal patient data and pharmacoepidemiologic methods, as previously established (Cheng et al., 2018). Thus, our two cohorts included: (1) salsalate vs. a matched aspirin population and (2) diflunisal vs. a matched aspirin population (Table 2). For each comparison, we estimated the un-stratified Kaplan-Meier curves and conducted propensity score (PS) stratified (n strata=10) log-rank tests and a Cox regression model after adjusting age, race, sex, and disease comorbidities (including diabetes, hypertension, and coronary artery disease) using a propensity score-matching method (Methods).\nStudy cohorts. The IBM® MarketScan® Medicare Supplemental Database is one of the first in the U.S. to profile the healthcare experience of retirees with Medicare supplemental insurance paid by employers. The MarketScan Medicare Supplemental Database provides detailed cost, use and outcomes data for healthcare services performed in both inpatient and outpatient settings. […]"}, "Alzheimer's disease": {"test_system": "Alzheimer's disease", "assay": "Pharmacoepidemiologic cohort analysis (MarketScan Medicare Supplemental database), incidence of AD", "type": "in vivo, human", "description": "as §2\nStudy cohorts. The IBM® MarketScan® Medicare Supplemental Database is one of the first in the U.S. to profile the healthcare experience of retirees with Medicare supplemental insurance paid by employers. The MarketScan Medicare Supplemental Database provides detailed cost, use and outcomes data for healthcare services performed in both inpatient and outpatient settings. For most of the population, the medical claims are linked to outpatient prescription drug claims and person-level enrollment data through the use of unique patient or enrollee identifiers. […] This feature makes the database a robust tool for pharmacoeconomic and outcomes research and helps provide insight into the drug use and spending patterns of older Americans. In this study, the pharmacoepidemiology study utilized the MarketScan Medicare Claims database from 2012 to 2017. The dataset included individual-level diagnosis codes, procedure codes and pharmacy claim data for 7.23 million patients. Pharmacy prescriptions of salsalate, diflunisal, and aspirin were identified by using RxNorm and National Drug Code (NDC).\nOutcome measurement. For a subject, a drug episode is defined as from drug initiation to drug discontinuation. Specifically, drug initiation is defined as the first day of drug supply (i.e. 1st prescription date). Drug discontinuation is defined as the last day of drug supply (i.e. last prescription date+days of supply) and without drug supply for the next 60 days. In another word, gaps of less than 60-day of drug supply were allowed within a drug episode. The drug cohort included the first drug episode for each subject. For the final cohorts, demographic variables including age, race, sex and geographical location were collected. […]"}, "[4]": {"details": "500 mg diflunisal twice daily for 11 days; cited from earlier work"}, "p300/CBP": {"test_system": "p300/CBP", "details": "literature (Shirakawa et al., 2016); cited from earlier work"}},
  "note": "Like-named read-outs stand apart in the source and are kept apart here.",
  "data": [
    {"compound": "O=C(O)c1cc(-c2ccc(F)cc2F)ccc1O", "note": "[diflunisal]", "values": [
      {"measurement": "penetration into mouse brain", "setting": "[1]", "value": "modest penetration of diflunisal into mouse brain"},
      {"measurement": "free drug plasma to brain ratio", "setting": "[1]; male, C57BL/6J, mouse", "value": "55:1"},
      {"measurement": "total diflunisal plasma to brain ratio", "setting": "[1]; male, C57BL/6J, mouse", "value": "about 200:1"},
      {"measurement": "fraction unbound at 6 h, 5 μM", "setting": "[2]; pH 7.4, mouse brain homogenate, read-out: fraction unbound in brain tissue (fubrain)", "value": "0.05 ± 0.001"},
      {"measurement": "fraction unbound at 6 h, 5 μM", "setting": "[2]; pH 7.4, mouse plasma, read-out: fraction unbound in plasma (fuplasma)", "value": "0.014 ± 0.002"},
      {"measurement": "stability in plasma and brain", "setting": "[3]", "value": 99, "unit": "%"},
      {"measurement": "hazard ratio [HR], clinically-diagnosed TBI", "setting": "clinically-diagnosed TBI", "value": 0.61},
      {"measurement": "incidence of AD, subgroup analysis", "setting": "Alzheimer's disease; excluding patients with type 2 diabetes, hypertension, or coronary artery disease, vs. aspirin", "value": "associated with decreased incidence of AD"},
      {"measurement": "hazard ratio [HR], AD", "setting": "Alzheimer's disease; vs. PS-matched aspirin cohort, Cox regression model, 6 years of follow-up", "value": 0.17},
      {"measurement": "mean peak plasma levels in humans", "setting": "[4]", "value": 190, "unit": "µg/mL"},
      {"measurement": "inhibition of p300/CBP", "setting": "p300/CBP", "value": "demonstrated to inhibit p300/CBP"}
    ]}
  ]
}
